Measurements: article PMC11678116 (Molecules, 2024)
Values joined by “and” are separate entries in the source; they are usually repeats but may differ in a detail not shown here. Equal values may be shown once. Read-outs that look alike come from different tables or passages of the source. Marks after values point to notes of the source that are not given here.

Experiments:
[1] = tested on: P. falciparum Dd2 (PfDd2); details: multi-drug resistant strain; cited from earlier work
[2] = tested on: P. falciparum 3D7 (Pf3D7); details: CQ-sensitive strain; cited from earlier work
[3] = tested on: P. falciparum 3D7 (Pf3D7); experiment: In vitro drug sensitivity assay (HRP2-ELISA) against erythrocytic stage, CQ-sensitive strain; assay type: cell-based; details: Plasmodium falciparum, mean ± SD (n ≥ 2)
Procedure: Briefly, 96-well plates were pre-coated with the tested compounds in a three-fold dilution before ring-stage parasites were added to the complete culture medium at a haematocrit of 1.5% and a parasitaemia of 0.05%. […] All compounds were evaluated in duplicate in at least two independent experiments. The IC50 was determined by non-linear regression analysis of log concentration-response curves using the drc-package v0.9.0 of R v2.6.1 [42].

[4] = tested on: P. falciparum Dd2 (PfDd2); experiment: microbe, parasite or virus in culture; assay type: cell-based; details: Plasmodium falciparum, DD2, read-out: IC50 PfDd2
Procedure: The resistance index (RI), which represents a ratio between IC50 obtained against PfDd2 and Pf3D7, was also calculated (Table 3).
Briefly, 96-well plates were pre-coated with the tested compounds in a three-fold dilution before ring-stage parasites were added to the complete culture medium at a haematocrit of 1.5% and a parasitaemia of 0.05%. After three days of incubation at 37 °C, 5% CO2, and 5% oxygen, plates were frozen until analysed by HRP2-ELISA. All compounds were evaluated in duplicate in at least two independent experiments. The IC50 was determined by non-linear regression analysis of log concentration-response curves using the drc-package v0.9.0 of R v2.6.1 [42].

[5] = molecular target: T1, human serum albumin (HSA) (Homo sapiens, UniProt P02768); experiment: Fluorimetric titration with HSA
T1 sequence (P02768 25-609): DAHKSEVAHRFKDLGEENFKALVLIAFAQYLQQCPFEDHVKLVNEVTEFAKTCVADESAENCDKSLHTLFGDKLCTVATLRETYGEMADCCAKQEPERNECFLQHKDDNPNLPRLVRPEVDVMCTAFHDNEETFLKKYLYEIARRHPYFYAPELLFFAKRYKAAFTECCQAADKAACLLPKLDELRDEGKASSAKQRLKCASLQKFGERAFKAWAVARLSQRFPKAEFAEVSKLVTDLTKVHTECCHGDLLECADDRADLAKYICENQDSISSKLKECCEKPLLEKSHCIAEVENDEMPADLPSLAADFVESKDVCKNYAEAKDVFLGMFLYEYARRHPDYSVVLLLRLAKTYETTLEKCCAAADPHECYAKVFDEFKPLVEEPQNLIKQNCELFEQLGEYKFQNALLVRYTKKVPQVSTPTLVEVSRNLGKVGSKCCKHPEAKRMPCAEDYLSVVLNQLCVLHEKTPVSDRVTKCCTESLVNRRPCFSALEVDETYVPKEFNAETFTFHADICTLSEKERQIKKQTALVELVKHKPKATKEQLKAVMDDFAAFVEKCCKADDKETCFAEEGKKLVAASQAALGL
Procedure: (§3) The electronic absorption (UV/vis) spectra were recorded on a Varian Cary 100 Bio spectrophotometer (Varian, Inc., Palo Alto, CA, USA). Fluorescence measurements were performed on a Varian Cary Eclipse fluorimeter (Varian, Inc., CA, USA), taking care that the absorbance of a sample at the excitation wavelength was > 0.05 to avoid any impact of the inner filter effect.
(§4) Human serum albumin was purchased from Sigma-Aldrich (Sigma-Aldrich, St. Louis, MO, USA) supplier, and dissolved in milli Q (MQ) water.
(§5) Fluorimetric titration experiments were performed by adding aliquots of the polynucleotide stock solution into the solution of the studied dye. […] In both sets of experiments (fluorimetric and CD titrations), a buffer background was subtracted from each spectrum. Every reported spectrophotometric titration was the average of at least two measurements.

[6] = molecular target: poly A–poly U (pApU, ds-RNA); experiment: Fluorimetric titration with poly A–poly U; assay type: binding
Procedure: The strong emission and favourable Stokes shift of emission maxima allowed the performance of fluorimetric titrations with ds-DNA/RNA at very low (5 µM) concentrations of investigated compounds.
(§1) The titration data are processed by a non-linear fitting procedure to the Scatchard equation [44, 45, 46], yielding binding constants (Supplemental Information, Figures S5–S12, Table 6).
(§2) Polynucleotides were purchased as noted: calf thymus (ct) DNA, poly dAdT–poly dAdT, poly dGdC–poly dGdC, and poly A–poly U (Sigma Aldrich, St. Louis, MO, USA), and dissolved in sodium cacodylate buffer (I = 0.05 M, pH = 7.0).

[7] = tested on: HepG2 cells; experiment: In vitro cytotoxicity, neutral red assay; assay type: cell-based; details: Homo sapiens, HepG2, 24 h, one day of incubation, mean ± SD (n ≥ 2)
Procedure: The cytotoxicity of the second-generation harmiquins 33–45 was assessed against HepG2 cells to determine the selectivity of the tested compounds towards P. falciparum in comparison to mammalian cells (Table 4).
Cytotoxicity against a human cell line (HepG2) was evaluated using the neutral red assay with minor modifications. In brief, human cells were seeded to a 96-well plate in a complete culture medium; on the following day, a serial dilution of the respective compound was added. After one day of incubation, cytotoxicity was evaluated by the addition of neutral red, subsequent lysis of cells, and measurement of absorbance (540 nm) in a plate reader (CLARIOstar, BMG Labtech). The IC50 was determined similarly to the in vitro drug assay against P. falciparum. To assess the safety of a compound, SI was calculated as the fractional ratio between the IC50s for HepG2 and P. falciparum 3D7 strain.

[8] = tested on: calf thymus (ct)-DNA; assay type: binding; details: for log Ks ctDNA: pH 7; for ΔInt ctDNA: ΔInt = Int(100% complex)/Int0
Description: as §1, §2

[9] = molecular target: poly(dAdT)2; assay type: binding
Description: as §1, §2

[10] = molecular target: T1, human serum albumin (HSA); experiment: biochemical
Procedure: as §3, §4, §5

Structure (SMILES) | IC50 [3] [µM] | IC50 [4] [µM] | IC50 [7] [µM] | other results
COc1ccc2c3ccnc(C)c3n(CCNC(=O)CNc3ccnc4cc(Cl)ccc34)c2c1 [A] |  |  |  | IC50 [1]: 0.0162 ± 0.00283 µM; IC50 [2]: 0.002 ± 0.0003 µM
COc1ccc2c3ccnc(C)c3n(Cc3cn(CCNc4ccnc5cc(Cl)ccc45)nn3)c2c1 [B] |  |  |  | IC50 [1]: 0.205 ± 0.00989 µM; IC50 [2]: 0.0116 ± 0.0038 µM
CCOc1ccc2c3ccnc(C)c3n(CCNC(=O)CNc3ccnc4cc(Cl)ccc34)c2c1 [Compound 33, 2-((7-Chloroquinolin-4-yl)amino)-N-(2-(7-ethoxy-1-methyl-9H-pyrido[3,4-b]indol-9-yl)ethyl)acetamide] | 0.0047 ± 0.0013 | 0.0065 ± 0.0025 |  | 
CCCOc1ccc2c3ccnc(C)c3n(CCNC(=O)CNc3ccnc4cc(Cl)ccc34)c2c1 [Compound 34, 2-((7-Chloroquinolin-4-yl)amino)-N-(2-(1-methyl-7-propoxy-9H-pyrido[3,4-b]indol-9-yl)ethyl)acetamide] | 0.011 ± 0.0015 | 0.0177 ± 0.0087 | 18.2 ± 1.8 | ΔInt HSA [5]: (62.8); log Ks pApU ([6]; estimation only, almost linear emission change, pH 7.0, sodium cacodylate buffer, I = 0.05 M): >4 ^c; log Ks toward GC-containing DNAs [8]: 6–7; log Ks ctDNA [8]: 7.3; ΔInt ctDNA [8]: (0.57); log Ks toward AT-DNA and AU-RNA [9]: 4–5; log Ks p(dA-dT)2 ([9]; pH 7): 5.2; ΔInt p(dA-dT)2 ([9]; ΔInt = Int(100% complex)/Int0): (2.28); Kd [10]: 0.794 µM
Cc1nccc2c3ccc(OC(C)C)cc3n(CCNC(=O)CNc3ccnc4cc(Cl)ccc34)c12 [Compound 35, 2-((7-Chloroquinolin-4-yl)amino)-N-(2-(7-isopropoxy-1-methyl-9H-pyrido[3,4-b]indol-9-yl)ethyl)acetamide] | 0.0281 ± 0.0005 | 0.0265 ± 0.0045 | 127 ± 31.5 | 
COc1ccc2c(c1)c1ccnc(C)c1n2CCNC(=O)CNc1ccnc2cc(Cl)ccc12 [Compound 36, 2-((7-Chloroquinolin-4-yl)amino)-N-(2-(6-methoxy-1-methyl-9H-pyrido[3,4-b]indol-9-yl)ethyl)acetamide] | 0.0166 ± 0.0021 | 0.0367 ± 0.004 | 24.3 ± 3.4 | 
CCCOc1ccc2c(c1)c1ccnc(C)c1n2CCNC(=O)CNc1ccnc2cc(Cl)ccc12 [Compound 37, 2-((7-Chloroquinolin-4-yl)amino)-N-(2-(1-methyl-6-propoxy-9H-pyrido[3,4-b]indol-9-yl)ethyl)acetamide] | 0.0046 ± 0.0006 | 0.0105 ± 0.0004 | 35.8 ± 4.3 | 
CCOc1ccc2c3ccnc(C)c3n(Cc3cn(CCNc4ccnc5cc(Cl)ccc45)nn3)c2c1 [Compound 38, 7-Chloro-N-(2-(4-((7-ethoxy-1-methyl-9H-pyrido[3,4-b]indol-9-yl)methyl)-1H-1,2,3-triazol-1-yl)ethyl)quinolin-4-amine] | 0.0187 ± 0.0047 | 0.0822 ± 0.0022 | 29.6 ± 6 | 
CCCOc1ccc2c3ccnc(C)c3n(Cc3cn(CCNc4ccnc5cc(Cl)ccc45)nn3)c2c1 [Compound 39, 7-Chloro-N-(2-(4-((1-methyl-7-propoxy-9H-pyrido[3,4-b]indol-9-yl)methyl)-1H-1,2,3-triazol-1-yl)ethyl)quinolin-4-amine] | 0.0068 ± 0.004 | 0.0201 ± 0.0022 | 14.4 ± 1.7 | emission response to AU-RNA ([6]; compound 5 µM, fluorimetric titration): completely insensitive; log Ks toward GC-containing DNAs [8]: 4–5; log Ks ctDNA [8]: 5.5; ΔInt ctDNA [8]: (0.59); emission response to AT-DNA [9]: completely insensitive; Kd [10]: 6.31 µM and 7.94 µM
Cc1nccc2c3ccc(OC(C)C)cc3n(Cc3cn(CCNc4ccnc5cc(Cl)ccc45)nn3)c12 [Compound 40, 7-Chloro-N-(2-(4-((7-isopropoxy-1-methyl-9H-pyrido[3,4-b]indol-9-yl)methyl)-1H-1,2,3-triazol-1-yl)ethyl)quinolin-4-amine] | 0.025 ± 0.0033 | 0.0333 ± 0.0016 | 26.9 ± 0.9 | 
COc1ccc2c(c1)c1ccnc(C)c1n2Cc1cn(CCNc2ccnc3cc(Cl)ccc23)nn1 [Compound 41, 7-Chloro-N-(2-(4-((6-methoxy-1-methyl-9H-pyrido[3,4-b]indol-9-yl)methyl)-1H-1,2,3-triazol-1-yl)ethyl)quinolin-4-amine] | 0.0185 ± 0.0061 | 0.0987 ± 0.0363 | 32.1 ± 1.1 | 
CCCOc1ccc2c(c1)c1ccnc(C)c1n2Cc1cn(CCNc2ccnc3cc(Cl)ccc23)nn1 [Compound 42, 7-Chloro-N-(2-(4-((1-methyl-6-propoxy-9H-pyrido[3,4-b]indol-9-yl)methyl)-1H-1,2,3-triazol-1-yl)ethyl)quinolin-4-amine] | 0.0076 ± 0.0002 | 0.0155 ± 0.0017 | 20.3 ± 1.6 | 
CCc1nccc2c3ccccc3n(Cc3cn(CCNc4ccnc5cc(Cl)ccc45)nn3)c12 [Compound 43, 7-Chloro-N-(2-(4-((1-ethyl-9H-pyrido[3,4-b]indol-9-yl)methyl)-1H-1,2,3-triazol-1-yl)ethyl)quinolin-4-amine] | 0.0884 ± 0.0005 | 0.204 ± 0.0732 | 68.2 ± 6.1 | 
CCCc1nccc2c3ccccc3n(Cc3cn(CCNc4ccnc5cc(Cl)ccc45)nn3)c12 [Compound 44, 7-Chloro-N-(2-(4-((1-propyl-9H-pyrido[3,4-b]indol-9-yl)methyl)-1H-1,2,3-triazol-1-yl)ethyl)quinolin-4-amine] | 0.0969 ± 0.0015 | 0.214 ± 0.0718 | 68.9 ± 4.3 | 
CC(C)c1nccc2c3ccccc3n(Cc3cn(CCNc4ccnc5cc(Cl)ccc45)nn3)c12 [Compound 45, 7-Chloro-N-(2-(4-((1-isopropyl-9H-pyrido[3,4-b]indol-9-yl)methyl)-1H-1,2,3-triazol-1-yl)ethyl)quinolin-4-amine] | 0.0159 ± 0.0115 | 0.0188 ± 0.0091 | 128 ± 2.7 | 
